Experimental findings from patent publication US20240383853A1, “OXIMES AND THEIR USE IN TREATMENT OF GBA-RELATED DISEASES” (ZEVRA DENMARK A/S, priority 2021, published 2024) are described below.

In the experiment the target is T1, glucosylceramidase (GCase, GBA) in human fibroblast cell line GM10915 harboring the L444P GBA mutation (Homo sapiens, UniProt P04062, L483P).
T1 construct: Human fibroblast cell line GM10915 harboring the L444P GBA mutation; host or cells: GM10915 human fibroblasts
T1 sequence (P04062 40-536 L483P): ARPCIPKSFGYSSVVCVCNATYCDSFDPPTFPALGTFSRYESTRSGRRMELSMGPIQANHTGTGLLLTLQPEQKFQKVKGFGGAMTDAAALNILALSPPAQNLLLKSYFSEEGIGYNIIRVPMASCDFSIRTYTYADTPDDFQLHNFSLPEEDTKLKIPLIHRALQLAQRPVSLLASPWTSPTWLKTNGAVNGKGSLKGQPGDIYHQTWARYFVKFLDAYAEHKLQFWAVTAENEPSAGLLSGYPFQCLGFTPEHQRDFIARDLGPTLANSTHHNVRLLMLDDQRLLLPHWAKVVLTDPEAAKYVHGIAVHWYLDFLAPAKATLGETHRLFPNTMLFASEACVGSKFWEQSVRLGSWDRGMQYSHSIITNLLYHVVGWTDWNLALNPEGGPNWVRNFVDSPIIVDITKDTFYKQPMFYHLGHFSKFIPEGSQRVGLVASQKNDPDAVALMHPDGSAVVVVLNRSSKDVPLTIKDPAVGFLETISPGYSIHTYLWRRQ
Kind of experiment: GCase activity assay (4-MUG substrate, normalised to crystal violet staining) in GM10915 fibroblasts. It is filed as cell-based. The settings on record: five days exposure; for GBA EC1.5: concentration where Percent GCase activity = 150% (1.5-fold induction), 8-point dose range; for Emax / GBA Emax: maximum Percent GCase activity relative to untreated cells in the dose range tested. As to the method:
Human fibroblast cell line GM10915 harboring the L444P GBA mutation was obtained from Coriell Biorepositories. All chemicals (Glacial acetic acid, Glycine, 4-Methylumbelliferyl b-D-glucopyranoside (4-MUG), Sodium acetate trihydrate, Sodium hydroxide, Crystal violet, SDS, Ammonium hydroxide) were obtained from Sigma-Aldrich (Denmark). Compounds tested for GCase activity were dissolved in H2O or DMSO.
The GM10915 cell line was cultured under standard cell culture conditions (37° C. and 5% CO2) in complete DMEM medium supplemented with nonessential amino acids (NEAA), 1% Pen-Strep and 12% FCS. Cells were seeded at a density of 10^4 cells/well in 100 μL complete medium in one black 96-well plate for glucosylceramidase (GCase) activity measurement and in one clear 96-well plate for crystal violet staining to correct for cell density. Crystal violet staining is performed to obtain quantitative information about the relative density of cells adhering to multi-wells plates.
The assay was adapted from Sawkar et al (2002) and briefly described in the following. The day after seeding of cells, the medium was replaced with fresh medium containing the compounds to be tested. Compounds were tested in duplicate and in an 8-point diluted dose range to obtain a dose response. Cells were exposed with compounds for five days. Fresh compound was added every 2-3 days. PBS was included to define the basal level of GCase activity.
Cells were washed three times with 200 μL PBS per well and 50 μL of 2.5 mM 4-MUG buffer (4-MUG dissolved in 0.2 M acetate buffer pH 4.0) was added and the cells were incubated at 37° C., 5% CO2 for 23 hours. The reaction was stopped by adding 150 μL 0.2 M glycine buffer (pH 10.8). Fluorescence was measured with a Varioskan® Flash reader (Thermo Scientific) at an excitation/emission setting of 365/445 nm.
Cells were treated with compounds in a parallel setup identical to the setup to test for GCase activity. At the end of compound treatment, cells were washed once with 200 μL PBS per well and 50 μL 0.1% w/v crystal violet (in H2O) was added. Following 10 min. of incubation, the crystal violet solution was removed, and the cells were washed three times with 200 μL PBS and 100 μL 1% SDS was added to solubilize the stain. The plate was agitated on an orbital shaker for 10-30 min. Absorbance (A) is measured at […] using a Varioskan® Flash reader (Thermo Scientific).
The fluorescence signal (F) derived from the GCase measurement is normalized to the absorbance signal (A) derived from the crystal violet staining. The percent GCase activity resulting from compound treatment is calculated relative to the basal activity obtained from untreated cells.
Maximal effect of compounds (Emax) is determined from the dose response effects as the maximum “Percent GCase activity” achieved in the dose range tested.

As usually defined, the Emax is the size of the effect at its maximum, as opposed to the concentration needed.

Marks after values point to notes of the source that are not given here. Some results are limits rather than exact numbers.

As to `OC(CO/N=C(\Cl)CCN1CCNCC1)CN1CCCCC1` (stereo not drawn) [ID 593], the “GBA EC1.5” value was 50 µM and the Emax is 136%.

Regarding `OC(CO/N=C(\Cl)C1(c2ccccn2)CCNCC1)CN1CCCCC1` (stereo not drawn) [ID 415, N-(2-hydroxy-3-(piperidin-1-yl)propoxy)-4-(pyridin-2-yl)piperidine-4-carbimidoyl chloride tri-2,2,2-trifluoroacetate], the “GBA EC1.5” value turned out to be 23 µM and the Emax was 235%.

Consider `OC(CON=C(Cl)C1(c2ccccn2)CCNCC1)CN1CCCCC1` (stereo not drawn) [ID 534, N-(2-hydroxy-3-(piperidin-1-yl)propoxy)-4-(pyridin-2-yl)piperidine-4-carbimidoyl chloride tri-2,2,2-trifluoroacetate], for which the “GBA EC1.5” value was 19 µM and the Emax came to 226%.

Regarding `OC(CO/N=C(\Cl)C1(c2cnccn2)CCNCC1)CN1CCCCC1` (stereo not drawn) [ID 512], the “GBA EC1.5” value turned out to be 50 µM and the Emax is 147%.

Consider `CC1(C(Cl)=NOC[C@@H](O)CN2CCCCC2)CCNCC1` (single isomer, unassigned) [ID 384], for which the “GBA EC1.5” value came to 32 µM and the Emax worked out at 352%.

Turning to `CC(O)(CON=C(Cl)c1ccc(Cl)nc1)CN1CCCCC1` (stereo not drawn) [ID 502, 6-chloro-N-(2-hydroxy-2-methyl-3-(piperidin-1-yl)propoxy)nicotinimidoyl chloride], the “GBA EC1.5” value worked out at 23 µM and the maximal effect (Emax) was found to be 131%.

Consider `CN1CCN(CC(O)CO/N=C(\Cl)C2(C)CCNCC2)CC1` (stereo not drawn) [ID 402, N-(2-hydroxy-3-(4-methylpiperazin-1-yl)propoxy)-4-methylpiperidine-4-carbimidoyl chloride tri-2,2,2-trifluoroacetate], for which the “GBA EC1.5” value came to 50 µM and the maximal response (Emax) stood at 408%.

Regarding `CC1(/C(Cl)=N/OCC(O)CN2CCC(F)CC2)CCNCC1` (stereo not drawn) [ID 399, N-(3-(4-fluoropiperidin-1-yl)-2-hydroxypropoxy)-4-methylpiperidine-4-carbimidoyl chloride di-2,2,2-trifluoroacetate], the “GBA EC1.5” value was determined as 34 µM and the Emax is 314%.

With `CC1(/C(Cl)=N/OC[C@H](O)CN2CCCCC2)CCNCC1` (stereo in doubt) [ID 387, (R)—N-(2-hydroxy-3-(piperidin-1-yl)propoxy)-4-methylpiperidine-4-carbimidoyl chloride di-2,2,2-trifluoroacetate], the “GBA EC1.5” value came out at 35 µM and the Emax was 379%.

Take `OC(CON=C(Cl)CCN1CCCC1)CN1CCCCC1` (stereo not drawn) [ID 562, N-(2-hydroxy-3-(piperidin-1-yl)propoxy)-3-(pyrrolidin-1-yl)propanimidoyl chloride]: the “GBA EC1.5” value is 3 µM and the Emax was 239%.

For `OC(CO/N=C(\Cl)C1(c2cccnc2)CCNCC1)CN1CCCCC1` (stereo not drawn) [ID 492, N-(2-hydroxy-3-(piperidin-1-yl)propoxy)-4-(pyridin-3-yl)piperidine-4-carbimidoyl chloride tri-2,2,2-trifluoroacetate], the “GBA EC1.5” value is 42 µM and the Emax was 383%.

For `CCC1(/C(Cl)=N/OCC(O)CN2CCCCC2)CCNCC1` (stereo not drawn) [ID 409, 4-ethyl-N-(2-hydroxy-3-(piperidin-1-yl)propoxy)piperidine-4-carbimidoyl chloride di-2,2,2-trifluoroacetate], the “GBA EC1.5” value was 25 µM and the Emax stood at 255%.

`CCCCCO[C@H]1CC[C@H](NC(=O)c2cnn3c(C)cc(C)nc23)CC1` [LTI-291, reference compound]: the “GBA EC1.5” value came out at 112 µM and the Emax turned out to be 232%.

In the case of `Cc1cc(C(Cl)=NOCC(O)CN2CCCCC2)on1` (stereo not drawn) [ID 475, N-(2-hydroxy-3-(piperidin-1-yl)propoxy)-3-methylisoxazole-5-carbimidoyl chloride], the “GBA EC1.5” value was 24 µM and the Emax was determined as 354%.

On to “4-(3-chloropyridin-4-yl)-N-(2-hydroxy-3-(piperidin-1-yl)propoxy)piperidine-4-carbimidoyl chloride tri-2,2,2-trifluoroacetate [ID 535]”, for which the “GBA EC1.5” value was 36 µM and the “GBA Emax” value is 186%.

Take `[O-][n+]1ccc(/C(Br)=N/OCC(O)CN2CCCCC2)cc1` (stereo not drawn) [ID 352]: the “GBA EC1.5” value was determined as 45 µM and the Emax is 474%.

In the case of `CC1(C(Cl)=NOCC(O)CN2CC3CC3C2)CCNCC1` (single isomer, unassigned) [ID 403, N-(3-(3-azabicyclo[3.1.0]hexan-3-yl)-2-hydroxypropoxy)-4-methylpiperidine-4-carbimidoyl chloride di-2,2,2-trifluoroacetate], the “GBA EC1.5” value worked out at 48 µM and the Emax came to 264%.

`Nc1c(Br)cc(Br)cc1CN[C@H]1CC[C@H](O)CC1` [Ambroxol, reference compound]: the “GBA EC1.5” value is listed as >20* *The 1.5-fold induction criteria was not reached within the tested concentration range μM and the Emax turned out to be 127%.

`COCCC1(/C(Cl)=N/OCC(O)CN2CCCCC2)CCNCC1` (stereo not drawn) [ID 448, N-(2-hydroxy-3-(piperidin-1-yl)propoxy)-4-(2-methoxyethyl)piperidine-4-carbimidoyl chloride di-2,2,2-trifluoroacetate]: the “GBA EC1.5” value amounted to 34 µM and the Emax is 468%.

Consider `COC(CO/N=C(\Cl)c1ccc(Cl)nc1)CN1CCCCC1` (stereo not drawn) [ID 503], for which the “GBA EC1.5” value is 50 µM and the Emax worked out at 142%.

Regarding `[O-][n+]1cccc(/C(Br)=N/OCC(O)CN2CCCCC2)c1` (stereo not drawn) [ID 257], the “GBA EC1.5” value worked out at 35 µM and the Emax is 307%.

For the molecule `CN(CC/C(Cl)=N\OCC(O)CN1CCCCC1)C(=O)OC(C)(C)C` (stereo not drawn) [ID 599, tert-butyl (3-chloro-3-((2-hydroxy-3-(piperidin-1-yl)propoxy)imino)propyl)(methyl)carbamate], the “GBA EC1.5” value worked out at 48 µM and the maximal effect (Emax) turned out to be 136%.

“N-(2-hydroxy-3-(piperidin-1-yl)propoxy)-4-((6-methylpyridin-3-yl)methyl)piperidine-4-carbimidoyl chloride tri-2,2,2-trifluoroacetate [ID 493]”: the “GBA EC1.5” value turned out to be 18 µM and the “GBA Emax” value is on record as 279%.

For `OC(CON=C(Br)c1ccc(Cl)nc1)CN1CCCCC1` (stereo not drawn) [ID 504, 6-chloro-N-(2-hydroxy-3-(piperidin-1-yl)propoxy)nicotinimidoyl bromide], the “GBA EC1.5” value was 20 µM and the Emax was 310%.

With `Cc1ncc(C(Cl)=NOCC(O)CN2CCCCC2)s1` (stereo not drawn) [ID 453, N-(2-hydroxy-3-(piperidin-1-yl)propoxy)-2-methylthiazole-5-carbimidoyl chloride], the “GBA EC1.5” value came to 39 µM and the Emax turned out to be 202%.

With `CN(C)CCC(Br)=NOCC(O)CN1CCCCC1` (single isomer, unassigned) [ID 532, 3-(dimethylamino)-N-(2-hydroxy-3-(piperidin-1-yl)propoxy)propanimidoyl bromide], the “GBA EC1.5” value amounted to 30 µM and the Emax came out at 239%.

Turning to `OC(CON=C(Br)c1ccnnc1)CN1CCCCC1` (stereo not drawn) [ID 452, N-(2-hydroxy-3-(piperidin-1-yl)propoxy)pyridazine-4-carbimidoyl bromide], the “GBA EC1.5” value was 18 µM and the Emax is 572%.
